Data reported in patent US12692269B2, “Therapeutic compounds” (Genentech, Inc., priority 2019, dated 2026).

Assays:
Format in all cases: binding
[1] = target: TEAD3 YAP50-100 (Homo sapiens, UniProt Q99594); test: TEAD3-YAP HTRF (TR-FRET) protein-protein interaction assay; settings: TEAD3, YAP peptide 50-100, HTRF; for EC50: read-out: TEAD3 YAP50-100 HTRF combined: EC50
In short: (§1)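 Compounds were given 30 min to bind Eu anti-His-labelled TEAD (His-tagged, aa 217-447) before streptavidin-XL665-coupled biotin-YAP 50-100 or biotin-TAZ 13-57 peptide went in for a further 60 min at room temperature. Loss of 665/615 nm TR-FRET ratio gave IC50/EC50 via four-parameter curve fit.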

[2] = target: TEAD1 YAP50-100 (Homo sapiens, UniProt P28347); test: TEAD1-YAP HTRF (TR-FRET) protein-protein interaction assay; settings: TEAD1, YAP peptide 50-100, HTRF; for EC50: read-out: TEAD1 YAP50-100 HTRF combined: EC50
In short: as §1

[3] = target: TEAD1 TAZ (amino acids 13-57) (Homo sapiens, UniProt P28347); test: TEAD1-TAZ HTRF (TR-FRET) protein-protein interaction assay; settings: for TEAD1 TAZ HTRF combined: Max % Inhibition: TEAD1, TAZ peptide; for EC50: TEAD1-TAZ HTRF, TR-FRET 665 nm/615 nm, read-out: TEAD1 TAZ HTRF combined: EC50
In short: as §1

[4] = target: TEAD2 YAP50-100 (Homo sapiens, UniProt Q15562); test: TEAD2-YAP HTRF (TR-FRET) protein-protein interaction assay; settings: TEAD2, YAP peptide 50-100, HTRF; for EC50: read-out: TEAD2 YAP50-100 HTRF combined: EC50
In short: as §1

[5] = target: TEAD2 TAZ (amino acids 13-57) (Homo sapiens, UniProt Q15562); test: TEAD2-TAZ HTRF (TR-FRET) protein-protein interaction assay; settings: for TEAD2 TAZ HTRF combined: Max % Inhibition: TEAD2, TAZ peptide; for EC50: TEAD2-TAZ HTRF, TR-FRET 665 nm/615 nm, read-out: TEAD2 TAZ HTRF combined: EC50
In short: as §1

[6] = target: TEAD3 TAZ (amino acids 13-57) (Homo sapiens, UniProt Q99594); test: TEAD3-TAZ HTRF (TR-FRET) protein-protein interaction assay; settings: for TEAD3 TAZ HTRF combined: Max % Inhibition: TEAD3, TAZ peptide; for EC50: TEAD3-TAZ HTRF, TR-FRET 665 nm/615 nm, read-out: TEAD3 TAZ HTRF combined: EC50
In short: as §1

[7] = target: TEAD4 YAP50-100 (Homo sapiens, UniProt Q15561); test: TEAD4-YAP HTRF (TR-FRET) protein-protein interaction assay; settings: TEAD4, YAP peptide 50-100, HTRF; for EC50: read-out: TEAD4 YAP50-100 HTRF combined: EC50
In short: as §1

[8] = target: TEAD4 TAZ (amino acids 13-57) (Homo sapiens, UniProt Q15561); test: TEAD4-TAZ HTRF (TR-FRET) protein-protein interaction assay; settings: for TEAD4 TAZ HTRF combined: Max % Inhibition: TEAD4, TAZ peptide; for EC50: TEAD4-TAZ HTRF, TR-FRET 665 nm/615 nm, read-out: TEAD4 TAZ HTRF combined: EC50
In short: as §1

Sequence of TEAD3 YAP50-100 (Q99594 173-435 limits assumed): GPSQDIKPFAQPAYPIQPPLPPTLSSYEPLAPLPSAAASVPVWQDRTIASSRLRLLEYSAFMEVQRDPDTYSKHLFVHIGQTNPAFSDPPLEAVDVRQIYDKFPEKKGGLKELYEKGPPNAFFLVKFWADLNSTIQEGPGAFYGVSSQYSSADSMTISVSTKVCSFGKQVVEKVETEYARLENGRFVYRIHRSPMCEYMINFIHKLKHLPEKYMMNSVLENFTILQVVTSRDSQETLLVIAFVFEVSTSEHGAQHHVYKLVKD
Sequence of TEAD3 TAZ (amino acids 13-57) (Q99594 173-435 limits assumed): as above
Sequence of TEAD2 TAZ (amino acids 13-57) (Q15562 217-447): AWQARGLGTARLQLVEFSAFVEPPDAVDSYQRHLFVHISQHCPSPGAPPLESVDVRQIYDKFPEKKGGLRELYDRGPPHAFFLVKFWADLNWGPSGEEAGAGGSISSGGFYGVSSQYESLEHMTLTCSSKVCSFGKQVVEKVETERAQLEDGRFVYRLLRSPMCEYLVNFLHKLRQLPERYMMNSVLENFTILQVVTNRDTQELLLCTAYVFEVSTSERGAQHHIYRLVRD
Sequence of TEAD2 YAP50-100 (Q15562 217-447): as above
Sequence of TEAD4 YAP50-100 (Q15561 217-434 limits assumed): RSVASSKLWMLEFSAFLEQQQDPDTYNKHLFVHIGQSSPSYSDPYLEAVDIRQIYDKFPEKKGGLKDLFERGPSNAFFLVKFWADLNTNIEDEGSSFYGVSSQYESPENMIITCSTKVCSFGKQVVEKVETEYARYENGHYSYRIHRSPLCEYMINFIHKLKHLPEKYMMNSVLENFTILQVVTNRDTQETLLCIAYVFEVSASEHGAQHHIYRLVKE
Sequence of TEAD4 TAZ (amino acids 13-57) (Q15561 217-434 limits assumed): as above
Sequence of TEAD1 YAP50-100 (P28347 167-426 limits assumed): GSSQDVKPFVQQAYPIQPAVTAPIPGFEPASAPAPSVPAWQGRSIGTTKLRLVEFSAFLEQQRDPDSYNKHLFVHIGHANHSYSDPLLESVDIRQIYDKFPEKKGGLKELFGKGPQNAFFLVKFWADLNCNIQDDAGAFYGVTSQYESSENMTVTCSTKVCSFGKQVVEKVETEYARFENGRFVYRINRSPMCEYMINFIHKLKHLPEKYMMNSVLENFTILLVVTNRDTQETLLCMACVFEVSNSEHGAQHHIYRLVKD
Sequence of TEAD1 TAZ (amino acids 13-57) (P28347 167-426 limits assumed): as above

Row | Compound | TEAD3 YAP50-100 HTRF combined: Max % Inhibition [1] [%] | EC50 [1] [nM] | TEAD1 YAP50-100 HTRF combined: Max % Inhibition [2] [%] | EC50 [2] [nM] | TEAD1 TAZ HTRF combined: Max % Inhibition [3] [%] | EC50 [3] [nM] | TEAD2 YAP50-100 HTRF combined: Max % Inhibition [4] [%] | EC50 [4] [nM] | TEAD2 TAZ HTRF combined: Max % Inhibition [5] [%] | EC50 [5] [nM] | TEAD3 TAZ HTRF combined: Max % Inhibition [6] [%] | EC50 [6] [nM] | TEAD4 YAP50-100 HTRF combined: Max % Inhibition [7] [%] | EC50 [7] [nM] | TEAD4 TAZ HTRF combined: Max % Inhibition [8] [%] | EC50 [8] [nM]
1 | [2H]C1([2H])C([2H])([2H])C([2H])([2H])C([2H])(c2ccc(-c3cc(=O)n4nc(-c5nccnc5C)c(C(=O)N5C[C@H](CF)[C@@H]5C)c4[nH]3)cc2)C([2H])([2H])C1([2H])[2H] [Compound 72, 3-[(2S,35)-3-(fluoromethyl)-2-methyl-azetidine-1-carbonyl]-2-(3-methylpyrazin-2-yl)-5-[4-(1,2,2,3,3,4,4,5,5,6,6-undecadeuteriocyclohexyl)phenyl]-4H-pyrazolo[1,5-a]pyrimidin-7-one] | 76.0 | 160 | 77.0 | 70 | 74.0 | 80 | 73.0 | 20 | 75.0 | 20 | 71.5 | 170 | 54.0 | 30 | 56.0 | 30
2 | O=C(c1c(-c2ncco2)nn2c(=O)cc(-c3ccc(C4CCCCC4)cc3)[nH]c12)N1CC(CF)C1 [Compound 19, 5-(4-Cyclohexylphenyl)-3-(3-(fluoromethyl)azetidine-1-carbonyl)-2-(oxazol-2-yl)pyrazolo[1,5-a]pyrimidin-7(4H)-one] | 60.0 | 60 | 69.0 | 40 | 59.5 | 70 | 67.5 | 10 | 63.5 | 10 | 53.0 | 60 | 46.0 | 60 | 38.5 | 50
3 | Cc1nccnc1-c1nn2c(=O)cc(-c3ccc(OC(c4ccccc4)C(F)(F)F)cc3)[nH]c2c1C(=O)N1C[C@H](CF)[C@@H]1C (single isomer, unassigned) [Final product obtained using Enantiomer A from Step 1, Example 56] | 81.5 | 370 | 74.0 | 370 | 63.0 | 320 | 92.0 | 60 | 89.0 | 60 | 74.5 | 430 | 69.5 | 2700 | 67.0 | 2250
4 | COc1nccnc1-c1nn2c(=O)cc(-c3ccc(C4CCCCC4)cc3)[nH]c2c1C(=O)N1CC(CF)C1 [Compound 13, 5-(4-Cyclohexylphenyl)-3-(3-(fluoromethyl)azetidine-1-carbonyl)-2-(3-methoxypyrazin-2-yl)pyrazolo[1,5-a]pyrimidin-7(4H)-one] | 71.5 | 180 | 74.0 | 80 | 66.5 | 100 | 65.0 | 20 | 60.0 | 20 | 56.5 | 180 | 50.0 | 210 | 40.0 | 130
5 | C[C@H](CO)c1nn2c(=O)cc(-c3ccc(C4CCCCC4)cc3)[nH]c2c1C(=O)N1CC(CF)C1 (single isomer, unassigned) [Enantiomer A, Example 55] | 69.5 | 100 | 62.0 | 80 | 44.0 | 110 | 61.5 | 10 | 51.5 | 10 | 59.5 | 110 | 42.0 | 500 | 32.0 | 460
6 | O=C(c1c(-c2nccnc2C(F)(F)F)nn2c(=O)cc(-c3ccc(C4CCCCC4)cc3)[nH]c12)N1CC(CF)C1 [Compound 7, 5-(4-Cyclohexylphenyl)-3-(3-(fluoromethyl)azetidine-1-carbonyl)-2-(3-(trifluoromethyl)pyrazin-2-yl)pyrazolo[1,5-a]pyrimidin-7(4H)-one] | 71.0 | 350 | 78.0 | 200 | 74.0 | 200 | 61.0 | 40 | 67.0 | 30 | 61.0 | 320 | 54.0 | 260 | 50.0 | 160
7 | O=C(c1c(-c2ccccc2)nn2c(=O)cc(-c3ccc(C4CCCCC4)cc3)[nH]c12)N1CC(CF)C1 [Compound 38, 5-(4-Cyclohexylphenyl)-3-(3-(fluoromethyl)azetidine-1-carbonyl)-2-phenylpyrazolo[1,5-a]pyrimidin-7(4H)-one] | 65.0 | 220 | 64.0 | 210 | 47.5 | 220 | 61.5 | 30 | 64.0 | 20 | 61.0 | 250 | 41.0 | 200 | 37.5 | 130
